Laboratory results from US20230145793A1, “SUBSTITUTED PYRIMIDINE OR PYRIDINE AMINE DERIVATIVE, COMPOSITION THEREOF, AND MEDICAL USE THEREOF” (SHANGHAI HAIYAN PHARMACEUTICAL TECHNOLOGY CO., LTD., priority 2020, published 2023).
Read-outs that look alike come from different tables or passages of the source.

Key:
A2A receptor [1] = biological target: T1, A2A receptor (Homo sapiens, UniProt P29274); assay: Test 2: inhibitory activity to the A2A receptor, cAMP HTRF in CHO-K1/ADORA2A/Gα15 cells, NECA 1 uM; format: cell-based
T1 construct: host or cells: CHO-K1 (co-expressing Gα15)
T1 sequence (P29274 whole entry): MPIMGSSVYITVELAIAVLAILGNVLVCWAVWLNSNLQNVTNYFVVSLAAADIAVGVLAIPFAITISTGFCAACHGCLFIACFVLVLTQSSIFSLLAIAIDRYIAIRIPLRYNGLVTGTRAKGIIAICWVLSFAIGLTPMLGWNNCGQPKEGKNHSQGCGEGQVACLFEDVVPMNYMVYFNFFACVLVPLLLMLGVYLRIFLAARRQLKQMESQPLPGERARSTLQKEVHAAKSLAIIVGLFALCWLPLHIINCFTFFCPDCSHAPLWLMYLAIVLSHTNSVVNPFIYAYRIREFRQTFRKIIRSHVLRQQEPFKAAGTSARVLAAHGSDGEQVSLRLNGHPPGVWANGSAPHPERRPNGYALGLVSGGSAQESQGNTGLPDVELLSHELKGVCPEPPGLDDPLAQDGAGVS
Experimental: (§1) Test 2: Inhibitory Activities to the A2A Receptor and the A2B Receptor
(§2) Screening procedure was as follows:
(§3) 1. The cell density was adjusted with a serum-free medium to 6×10^5 cells/mL.
(§4) 3. The cells were placed still and cultured in an incubator at 37° C. for 30 min.
(§5) 4. 5 μL of cAMP-d2 and 5 μL of cAMP-ab (Cisbio, 62AM4PEB) were added in sequence.
(§6) 5. The 384-well plate was placed in dark at the room temperature for 1 h.
(§7) 6. The plate was read (Victor X5, PerkinElmer), data were analyzed by XLfit nonlinear regression, and IC50 values of the compounds were calculated.

A2B receptor [2] = biological target: T2, A2B receptor (Homo sapiens, UniProt P29275); assay: Test 2: inhibitory activity to the A2B receptor, cAMP HTRF in CHO-K1/ADORA2B/Gα15 cells, NECA 0.1 uM; format: cell-based
T2 construct: host or cells: CHO-K1 (co-expressing Gα15)
T2 sequence (P29275 1-332): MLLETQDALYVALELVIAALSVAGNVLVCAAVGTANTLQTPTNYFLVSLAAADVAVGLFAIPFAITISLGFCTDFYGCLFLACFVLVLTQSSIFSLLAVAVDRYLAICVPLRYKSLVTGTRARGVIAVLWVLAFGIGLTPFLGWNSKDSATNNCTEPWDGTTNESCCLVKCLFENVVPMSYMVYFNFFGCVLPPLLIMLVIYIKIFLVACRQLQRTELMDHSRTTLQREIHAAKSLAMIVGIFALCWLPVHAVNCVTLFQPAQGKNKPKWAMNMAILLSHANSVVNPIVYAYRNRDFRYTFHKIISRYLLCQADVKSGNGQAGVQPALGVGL
Experimental: as §1, §2, §3, §4, §5, §6, §7

A2B receptor [3] = biological target: T2, A2B receptor; assay: Test 1: inhibitory activity to the A2B receptor, cAMP HTRF in CHO-K1/ADORA2B/Gα15 cells, NECA 10 nM; format: cell-based
Experimental: (§8) Test 1: Inhibitory Activities to the A2A Receptor and the A2B Receptor CHO-K1/ADORA2A/Gα15 (GenScript, M00246) and CHO-K1/ADORA2B/Gα15 (GenScript, M00329) cells were cultured in a Ham's F-12 (Gibco, 31765092) medium containing 10% FBS, Zeocin (200 ug/mL), and Hygromycin B (100 ug/mL), or containing 10% FBS, G418 (400 ug/mL), and Hygromycin B (100 ug/mL) under culture conditions specified in the corresponding instruction. Screening procedure was as follows: 1. The cell density was adjusted with a serum-free medium to 6×10^5 cells/mL. 2. 5 uL of cell solution, 2.5 μL of NECA (Sigma, 119140-10MG), and 2.5 μL of compound solution were placed into each well of a 384-well plate (Greiner Bio-One, 784075) in sequence, the final concentration of NECA was 50 nM (CHO-K1/ADORA2A) or 10 nM (CHO-K1/ADORA2B), and the compound solution was subjected to 3-fold dilution from the final concentration of 3 uM. 3. The cells were placed still and cultured in an incubator at 37° C. for 30 min. 4. 5 μL of cAMP-d2 and 5 μL of cAMP-ab (Cisbio, 62AM4PEB) were added in sequence. 5. The 384-well plate was placed in dark at the room temperature for 1 h. 6. The plate was read (Victor X5, PerkinElmer), data were analyzed by XLfit nonlinear regression, and IC50 values of the compounds were calculated.

A2A receptor [4] = biological target: T1, A2A receptor; assay: Test 1: inhibitory activity to the A2A receptor, cAMP HTRF in CHO-K1/ADORA2A/Gα15 cells, NECA 50 nM; format: cell-based
Experimental: as §8

[5] = Test 3: in-vivo pharmacokinetics test in mice (plasma, LC/MS/MS); conditions: mouse, male ICR mice; for clearance: read-out: Clearance rate CLz
Experimental: Test 3: In-Vivo Pharmacokinetics Test
Mice were respectively administrated with the compound of the present disclosure by intravenous injection or intragastric administration, and the concentration of the drug in the plasma at different time points was determined by LC/MS/MS to explore pharmacokinetic behavior of the compound of the present disclosure in the mouse so as to evaluate the pharmacokinetic characteristics of the compound.
Experimental animals: healthy adult male ICR mice (weight: 25 to 40 g, 12 mice, mice in the intravenous injection group had free access to water and food, and mice in the intragastric administration group fasted overnight and had free access to water and food 4 h after administration), provided by Beijing Vital River Laboratory Animal Co., Ltd.
Administration method and dosage: before administration, animals that met the experimental requirements were selected, weighed, and marked. The ICR mice were subjected to tail vein administration (2 mg/kg, 5% DMSO, pH=4.5, 20% Captisol) or intragastric administration (10 mg/kg, 5% DMSO, pH=4.5, 20% Captisol).
Blood sample collection: before blood sample collection, each mouse was tied, and about 100 μL of blood was collected from each mouse subjected to administration at a preset blood collection time point through the jugular vein (for the mice subjected to intravenous administration: blood was collected from each mouse at a total of 9 time points, i.e., 0.083 h, 0.25 h, 0.5 h, 1 h, 2 h, 4 h, 6 h, 7.5 h, and 24 h after administration; and for the mice subjected to intragastric administration: blood was collected from each mouse at a total of 9 time points, i.e., 0.083 h, 0.25 h, 0.5 h, 1 h, 2 h, 4 h, 6 h, 7.5 h, and 24 h after administration). The blood was transferred to a test tube (1.5 mL) containing K2EDTA and centrifuged for 4 min (8,000 rpm, 4° C.) to separate out plasma, and the whole process was completed within 15 min after blood collection. All samples were stored in a refrigerator at −20° C. before sample analysis. The concentration of the drug was determined by LC/MS/MS.
Pharmacokinetic property parameters of the compounds of some examples of the present disclosure in the mice under the conditions of same dosage and intravenous administration are shown in Table 3:
Pharmacokinetic property parameters of the compounds of some examples of the present disclosure in the mice under the conditions of same dosage and intragastric administration are shown in Table 4: […]

[6] = intravenous (tail vein) 2 mg/kg, read-out: Area under the curve AUC0-t
[7] = intravenous (tail vein) 2 mg/kg
[8] = po, intragastric administration 10 mg/kg
[9] = po, intragastric administration 10 mg/kg, read-out: Area under the curve AUClast

Cc1c(C#N)cccc1-c1nc(N)c(F)c(-c2cn(Cc3nc(C(C)(C)O)ccc3O)nn2)n1 [Compound L-94]
IC50 (A2A receptor [1]): 0.016 µM
IC50 (A2B receptor [2]): 0.038 µM

Cc1c(C#N)cccc1-c1nc(N)c(F)c(-c2cn(Cc3ccn(C4CC4)n3)nn2)n1 [Compound L-32]
IC50 (A2B receptor [3]): 0.001 µM
IC50 (A2A receptor [4]): < 0.001 µM
AUC(0-t) [5, 6]: 2510 ng·h/mL
clearance [5, 7]: 13.3 mL/min/kg
Cmax [5, 8]: 8980 ng/mL
AUC(0-t) [5, 9]: 14800 ng·h/mL

Cc1c(C#N)cccc1-c1nc(N)c(F)c(-c2cn(Cc3ccn(CC(F)F)n3)nn2)n1 [Compound L-44]
IC50 (A2B receptor [3]): 0.004 µM
IC50 (A2A receptor [4]): 0.001 µM
IC50 (A2A receptor [1]): 0.022 µM
IC50 (A2B receptor [2]): 0.064 µM

Cc1c(C#N)cccc1-c1nc(N)c(F)c(-c2cn(Cc3cccc(C(C)(C)O)n3)nn2)n1 [Compound L-1]
IC50 (A2B receptor [3]): 0.003 µM
IC50 (A2A receptor [4]): 0.001 µM
IC50 (A2A receptor [1]): 0.024 µM
IC50 (A2B receptor [2]): 0.062 µM

Cc1c(C#N)cccc1-c1nc(N)c(F)c(-c2cn(Cc3ccn(C)n3)nn2)n1 [Compound L-67]
IC50 (A2B receptor [3]): 0.007 µM
IC50 (A2A receptor [4]): 0.003 µM
AUC(0-t) [5, 6]: 2310 ng·h/mL
clearance [5, 7]: 14.2 mL/min/kg
Cmax [5, 8]: 5720 ng/mL
AUC(0-t) [5, 9]: 17300 ng·h/mL

Cc1c(C#N)cccc1-c1nc(N)c(F)c(-c2cn(Cc3ccn(C4CCOCC4)n3)nn2)n1 [Compound L-89]
IC50 (A2B receptor [3]): 0.005 µM
IC50 (A2A receptor [4]): < 0.001 µM
IC50 (A2A receptor [1]): 0.011 µM
IC50 (A2B receptor [2]): 0.068 µM

Cc1c(C#N)cccc1-c1nc(N)c(Cl)c(-c2cn(Cc3cc(C(C)(C)O)n(C)n3)nn2)n1 [Compound L-10]
IC50 (A2B receptor [3]): 0.001 µM
IC50 (A2A receptor [4]): 0.004 µM
AUC(0-t) [5, 6]: 2740 ng·h/mL
clearance [5, 7]: 12.1 mL/min/kg
Cmax [5, 8]: 12600 ng/mL
AUC(0-t) [5, 9]: 18000 ng·h/mL

Cc1c(C#N)cccc1-c1cc(-c2cn(Cc3cccc(C(C)(C)O)n3)nn2)nc(N)n1 [Compound D1, reference compound]
IC50 (A2A receptor [1]): 0.065 µM
IC50 (A2B receptor [2]): 0.075 µM

Cc1c(C#N)cccc1-c1nc(N)c(Cl)c(-c2cn(Cc3cccc(C(C)(C)O)n3)nn2)n1 [Compound L-3]
IC50 (A2B receptor [3]): 0.004 µM
IC50 (A2A receptor [4]): < 0.001 µM
AUC(0-t) [5, 6]: 3600 ng·h/mL
clearance [5, 7]: 9.12 mL/min/kg
Cmax [5, 8]: 15900 ng/mL
AUC(0-t) [5, 9]: 22200 ng·h/mL

Cc1c(C#N)cccc1-c1nc(N)c(F)c(-c2cn(Cc3cccc(CN4CCOCC4)n3)nn2)n1 [Compound L-70]
IC50 (A2B receptor [3]): 0.013 µM
IC50 (A2A receptor [4]): 0.002 µM

Cc1c(C#N)cccc1-c1nc(N)c(F)c(-c2cn(Cc3cccc(C(N)=O)n3)nn2)n1 [Compound L-56]
IC50 (A2B receptor [3]): 0.024 µM
IC50 (A2A receptor [4]): 0.007 µM

Cc1c(C#N)cccc1-c1nc(N)c(F)c(-c2cn(Cc3cccc(CN4CCN(C)CC4)n3)nn2)n1 [Compound L-71]
IC50 (A2B receptor [3]): 0.023 µM
IC50 (A2A receptor [4]): 0.006 µM

Cc1c(C#N)cccc1-c1nc(N)c(F)c(-c2cn(Cc3ccn(CCF)n3)nn2)n1 [Compound L-38]
IC50 (A2B receptor [3]): 0.002 µM
IC50 (A2A receptor [4]): 0.001 µM
AUC(0-t) [5, 6]: 2590 ng·h/mL
clearance [5, 7]: 12.7 mL/min/kg
Cmax [5, 8]: 7210 ng/mL
AUC(0-t) [5, 9]: 13300 ng·h/mL
IC50 (A2A receptor [1]): 0.018 µM
IC50 (A2B receptor [2]): 0.05 µM

Cc1c(C#N)cccc1-c1nc(N)c(F)c(-c2cn(Cc3cccc(C4(O)COC4)n3)nn2)n1 [Compound L-53]
IC50 (A2B receptor [3]): 0.004 µM
IC50 (A2A receptor [4]): 0.002 µM

Cc1c(C#N)cccc1-c1nc(N)nc(-c2cn(Cc3ccn(C)n3)nn2)c1F [Compound L-59]
IC50 (A2B receptor [3]): 0.049 µM
IC50 (A2A receptor [4]): 0.063 µM

COCc1cccc(Cn2cc(-c3nc(N)nc(-c4cccc(C#N)c4C)c3F)nn2)n1 [Compound L-60]
IC50 (A2B receptor [3]): 0.073 µM
IC50 (A2A receptor [4]): 0.079 µM

Cc1c(C#N)cccc1-c1nc(N)c(F)c(-c2cn(Cc3ccn(CC(F)(F)F)n3)nn2)n1 [Compound L-37]
IC50 (A2B receptor [3]): 0.007 µM
IC50 (A2A receptor [4]): 0.002 µM

Cc1c(C#N)cccc1-c1nc(N)c(F)c(-c2cn(Cc3ccn(CC4CC4)n3)nn2)n1 [Compound L-39]
IC50 (A2B receptor [3]): 0.007 µM
IC50 (A2A receptor [4]): 0.002 µM

CCC(C)(O)c1cccc(Cn2cc(-c3nc(-c4cccc(C#N)c4C)nc(N)c3F)nn2)n1 [Compound L-85]
IC50 (A2B receptor [3]): 0.004 µM
IC50 (A2A receptor [4]): 0.002 µM

Cc1c(C#N)cccc1-c1nc(N)c(Cl)c(-c2cn(Cc3ccn(C)n3)nn2)n1 [Compound L-9]
IC50 (A2B receptor [3]): 0.001 µM
IC50 (A2A receptor [4]): 0.001 µM
AUC(0-t) [5, 6]: 4680 ng·h/mL
clearance [5, 7]: 6.97 mL/min/kg
Cmax [5, 8]: 6790 ng/mL
AUC(0-t) [5, 9]: 23800 ng·h/mL

Cc1c(C#N)cccc1-c1nc(N)c(F)c(-c2cn(Cc3cc[nH]n3)nn2)n1 [Compound L-27]
IC50 (A2B receptor [3]): 0.002 µM
IC50 (A2A receptor [4]): 0.007 µM

Cc1c(C#N)cccc1-c1nc(N)c(F)c(-c2cn(Cc3cc(C)n(C)n3)nn2)n1 [Compound L-79]
IC50 (A2B receptor [3]): 0.025 µM
IC50 (A2A receptor [4]): 0.019 µM

Cc1c(C#N)cccc1-c1nc(N)c(Cl)c(-c2cn(Cc3ccn(C4COC4)n3)nn2)n1 [Compound L-93]
IC50 (A2B receptor [3]): 0.004 µM
IC50 (A2A receptor [4]): < 0.001 µM
